Where “and” joins values, the source holds several entries; their conditions need not be identical. Equal values may be shown once. Toxic doses and inconclusive results are not listed.
Tested on: BDF1 mice, P388 leukemia ip, median survival T/C
Assay: NCI In Vivo Anticancer Drug Screen. Data for tumor model P388 Leukemia (intraperitoneal) in B6D2F1 (BDF1) mice
Details: endpoint: median survival time, higher = longer survival
In short: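 In tumour-bearing mice, survival after compound treatment is set against the vehicle group and given as a quotient.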

[1] = dose: 50.0 mg/kg/injection, schedule: Q01DX009 (ip), vehicle: saline with Tween-80
[2] = dose: 100.0 mg/kg/injection, schedule: Q01DX009 (ip), vehicle: saline with Tween-80
[3] = dose: 200.0 mg/kg/injection, schedule: Q01DX009 (ip), vehicle: saline with Tween-80
[4] = dose: 400.0 mg/kg/injection, schedule: Q01DX009 (ip), vehicle: saline with Tween-80
[5] = dose: 50.0 mg/kg/injection, schedule: Q01DX009 (ip), vehicle: water
[6] = dose: 100.0 mg/kg/injection, schedule: Q01DX009 (ip), vehicle: water
[7] = dose: 200.0 mg/kg/injection, schedule: Q01DX009 (ip), vehicle: water
[8] = dose: 100.0 mg/kg/injection, schedule: Q04DX003 (ip), vehicle: saline with Tween-80
[9] = dose: 200.0 mg/kg/injection, schedule: Q04DX003 (ip), vehicle: saline with Tween-80
[10] = dose: 25.0 mg/kg/injection, schedule: Q01DX009 (ip), vehicle: saline
[11] = dose: 50.0 mg/kg/injection, schedule: Q01DX009 (ip), vehicle: saline
[12] = dose: 100.0 mg/kg/injection, schedule: Q01DX009 (ip), vehicle: saline
[13] = dose: 100.0 mg/kg/injection, schedule: Q04DX003 (ip), vehicle: saline
[14] = dose: 200.0 mg/kg/injection, schedule: Q04DX003 (ip), vehicle: saline
[15] = dose: 400.0 mg/kg/injection, schedule: Q04DX003 (ip), vehicle: saline with Tween-80

With `Clc1ccc(N2CCN(CCCN3CCN(c4cccc(Cl)c4)CC3)CC2)cc1` the T/C (dose: 50.0 mg/kg/injection, schedule: Q04DX003 (ip), vehicle: saline sonified) was 100 % of control, the T/C (dose: 100.0 mg/kg/injection, schedule: Q04DX003 (ip), vehicle: saline sonified) was 100 % of control and the T/C (dose: 200.0 mg/kg/injection, schedule: Q04DX003 (ip), vehicle: saline sonified) was 91 % of control.
In the case of `COc1ccc(COC(=O)NC(CCS(C)=O)C(=O)O)cc1` (stereo not given), the T/C [1] is reported as 91 % of control, the T/C [2] is reported as 99 % of control and the T/C [3] is reported as 99 % of control.
For `Clc1nc2nc(C3CC3)[nH]c2nc1Cl`, the T/C [2] was 104 % of control, the T/C [3] was 100 % of control and the T/C [4] was 104 % of control.
For `COc1cc2c(cc1OC)C(=O)C(c1ccc3c(c1)OCO3)CC2` (stereo not given), the T/C (dose: 12.5 mg/kg/injection, schedule: Q01DX009 (ip), vehicle: water) was 98 % of control, the T/C (dose: 12.5 mg/kg/injection, schedule: Q04DX003 (ip), vehicle: water) was 95 % of control and the T/C (dose: 25.0 mg/kg/injection, schedule: Q01DX009 (ip), vehicle: water) was 93 % of control. The T/C (dose: 25.0 mg/kg/injection, schedule: Q04DX003 (ip), vehicle: water) was 101 % of control, the T/C [5] was 88 % of control and 92 % of control and the T/C (dose: 50.0 mg/kg/injection, schedule: Q04DX003 (ip), vehicle: water) was 100 % of control. The T/C (dose: 75.0 mg/kg/injection, schedule: Q01DX009 (ip), vehicle: water) was 93 % of control, the T/C [6] was 87 % of control and the T/C (dose: 100.0 mg/kg/injection, schedule: Q04DX003 (ip), vehicle: water) was 88 % of control. For the same compound, the T/C [7] was 91 % of control.
In the case of `COC1C(CO)OC(n2cnc3c(=S)nc(N)[nH]c32)C1O` (stereo not given), the T/C [8] is reported as 104 % of control, the T/C [9] is reported as 104 % of control and the T/C (dose: 600.0 mg/kg/injection, schedule: Q04DX003 (ip), vehicle: saline with Tween-80) is reported as 122 % of control.
`CCO/C=C1\SC(=S)N(c2ccc(C(=O)O)cc2)C1=O` was tested, and the T/C (dose: 11.0 mg/kg/injection, schedule: Q01DX009 (ip), vehicle: saline) was 104 % of control, the T/C [10] was 122 % of control and the T/C (dose: 37.5 mg/kg/injection, schedule: Q01DX009 (ip), vehicle: saline) was 100 % of control. The T/C [2] was 116 % of control.
For `O=Cc1ccccc1B(O)O`, the T/C (dose: 50.0 mg/kg/injection, schedule: Q01DX009 (ip), vehicle: Klucel (hydroxypropylcellulose) (HPC)) was 108 % of control and 109 % of control, the T/C (dose: 50.0 mg/kg/injection, schedule: Q04DX003 (ip), vehicle: Klucel (hydroxypropylcellulose) (HPC)) was 92 % of control and the T/C (dose: 100.0 mg/kg/injection, schedule: Q01DX009 (ip), vehicle: Klucel (hydroxypropylcellulose) (HPC)) was 108 % of control and 118 % of control. The T/C (dose: 100.0 mg/kg/injection, schedule: Q04DX003 (ip), vehicle: Klucel (hydroxypropylcellulose) (HPC)) was 100 % of control and the T/C (dose: 200.0 mg/kg/injection, schedule: Q04DX003 (ip), vehicle: Klucel (hydroxypropylcellulose) (HPC)) was 107 % of control.
With `CCCCN=CC(C)(C)NCCCC` the T/C [11] was 91 % of control and 99 % of control, the T/C (dose: 50.0 mg/kg/injection, schedule: Q04DX003 (ip), vehicle: saline) was 103 % of control and the T/C [12] was 98 % of control and 107 % of control. For the same compound, the T/C [13] was 103 % of control and the T/C [14] was 100 % of control.
With `CCOC(=O)C(C1=NC(C)(C)CC(C)O1)C(C[N+](=O)[O-])c1ccccc1` (stereo not given) the T/C (dose: 50.0 mg/kg/injection, schedule: Q01DX001 (ip), vehicle: saline sonified) was 100 % of control, the T/C (dose: 100.0 mg/kg/injection, schedule: Q01DX001 (ip), vehicle: saline sonified) was 100 % of control and the T/C (dose: 200.0 mg/kg/injection, schedule: Q01DX001 (ip), vehicle: saline sonified) was 100 % of control.
In the case of `CCOC(=O)Cc1csc2nc(-c3ccccc3)nn12`, the T/C [1] is reported as 106 % of control, the T/C [2] is reported as 108 % of control and the T/C [3] is reported as 115 % of control.
In the case of `CCc1oc(=O)c(Cc2c(O)cc(O)c3c2OC(c2ccccc2)CC3=O)c(O)c1C` (stereo not given), the T/C (dose: 4.0 mg/kg/injection, schedule: Q01DX009 (ip), vehicle: Klucel (hydroxypropylcellulose) (HPC)) is reported as 95 % of control, the T/C (dose: 8.0 mg/kg/injection, schedule: Q01DX009 (ip), vehicle: Klucel (hydroxypropylcellulose) (HPC)) is reported as 100 % of control and the T/C (dose: 16.0 mg/kg/injection, schedule: Q01DX009 (ip), vehicle: Klucel (hydroxypropylcellulose) (HPC)) is reported as 93 % of control. The T/C (dose: 32.0 mg/kg/injection, schedule: Q01DX009 (ip), vehicle: Klucel (hydroxypropylcellulose) (HPC)) was 93 % of control.
In the case of `CCSc1c(S)cnn(C)c1=O`, the T/C (dose: 50.0 mg/kg/injection, schedule: Q01DX005 (ip), vehicle: saline with Tween-80) is reported as 90 % of control, the T/C (dose: 100.0 mg/kg/injection, schedule: Q01DX005 (ip), vehicle: saline with Tween-80) is reported as 90 % of control and the T/C (dose: 200.0 mg/kg/injection, schedule: Q01DX005 (ip), vehicle: saline with Tween-80) is reported as 97 % of control.
With `CC(=O)Nc1ccc(OCCOC(=O)Nc2ccc(C)cc2[N+](=O)[O-])cc1` the T/C (dose: 12.5 mg/kg/injection, schedule: Q01DX009 (ip), vehicle: Klucel (hydroxypropylcellulose) (HPC)) was 105 % of control and the T/C (dose: 25.0 mg/kg/injection, schedule: Q01DX009 (ip), vehicle: Klucel (hydroxypropylcellulose) (HPC)) was 93 % of control.
`Cc1ccc(NCCN2CCOCC2)c2c(=O)c3ccccc3sc12` was tested, and the T/C [12] was 90 % of control, the T/C [13] was 110 % of control and the T/C (dose: 200.0 mg/kg/injection, schedule: Q01DX009 (ip), vehicle: saline) was 109 % of control. The T/C [14] was 110 % of control, the T/C (dose: 400.0 mg/kg/injection, schedule: Q01DX009 (ip), vehicle: saline) was 122 % of control and the T/C (dose: 400.0 mg/kg/injection, schedule: Q04DX003 (ip), vehicle: saline) was 110 % of control.
With `CCNC(C)(C)C(=O)c1ccc(Cl)s1` the T/C (dose: 25.0 mg/kg/injection, schedule: Q01DX009 (ip), vehicle: saline with Tween-80) was 98 % of control, the T/C [1] was 91 % of control and the T/C (dose: 50.0 mg/kg/injection, schedule: Q04DX003 (ip), vehicle: saline with Tween-80) was 99 % of control. The T/C [2] was 96 % of control, the T/C [8] was 86 % of control and 109 % of control and the T/C [9] was 89 % of control and 104 % of control. For the same compound, the T/C [15] was 95 % of control and 96 % of control.
With `Cc1[nH]c(=O)[nH]c(=O)c1NCCO` the T/C [5] was 102 % of control, the T/C [6] was 109 % of control and the T/C [7] was 105 % of control. The T/C (dose: 400.0 mg/kg/injection, schedule: Q01DX009 (ip), vehicle: water) was 112 % of control.
In the case of `C[C@]12CC[C@H]3[C@@H](CCC4=CC(=O)CC[C@@H]43)[C@@H]1CC[C@@H]2OC(=O)CCc1ccccc1`, the T/C [2] is reported as 100 % of control, the T/C [8] is reported as 86 % of control and the T/C [3] is reported as 100 % of control. The T/C [4] was 90 % of control and the T/C [15] was 86 % of control.
With `CCN(CC)CCCNc1c(OC)cc(C)c2sc3ccccc3c(=O)c12` the T/C (dose: 12.5 mg/kg/injection, schedule: Q01DX009 (ip), vehicle: saline) was 93 % of control, the T/C [10] was 108 % of control and the T/C [11] was 112 % of control.
`C=CC(=O)NC(Cc1ccccc1)C(=O)O` (stereo not given) was tested, and the T/C [1] was 102 % of control, the T/C [2] was 98 % of control and the T/C [3] was 99 % of control.
For `CCNc1nncs1`, the T/C (dose: 30.0 mg/kg/injection, schedule: Q01DX009 (ip), vehicle: saline) was 116 % of control, the T/C (dose: 38.0 mg/kg/injection, schedule: Q04DX003 (ip), vehicle: saline with Tween-80) was 100 % of control and the T/C (dose: 44.0 mg/kg/injection, schedule: Q01DX009 (ip), vehicle: saline) was 114 % of control. For the same compound, the T/C (dose: 58.0 mg/kg/injection, schedule: Q04DX003 (ip), vehicle: saline with Tween-80) was 100 % of control, the T/C (dose: 88.0 mg/kg/injection, schedule: Q04DX003 (ip), vehicle: saline with Tween-80) was 108 % of control and the T/C [12] was 150 % of control and 168 % of control. The T/C [13] was 86 % of control, the T/C (dose: 150.0 mg/kg/injection, schedule: Q01DX009 (ip), vehicle: saline) was 105 % of control and the T/C [9] was 165 % of control. The T/C (dose: 225.0 mg/kg/injection, schedule: Q01DX009 (ip), vehicle: saline) was 95 % of control and the T/C (dose: 300.0 mg/kg/injection, schedule: Q04DX003 (ip), vehicle: saline with Tween-80) was 196 % of control.

— PubChem BioAssay AID328 (DTP/NCI, 2004)
